In test [1] the test system is RSV (A2). Description: viral yield reduction assay (growth inhibition), RSV. Type of test: cell-based, human respiratory syncytial virus. The note with it: 4 days; for IC50: human respiratory syncytial virus, 96 h. The protocol: (§1) The compounds were tested for biological activity using viral yield reduction assays. Host cells (indicated as HF for human foreskin fibroblasts and as vero, the commonly used African green monkey cell line, in Tables 1 and 1a) were plated at 4×10^4 cells/well in cell growth medium with 2% fetal bovine serum or 2% calf serum in 96-well plates (0.1 ml/well) and incubated overnight. The compounds were added to individual wells to give final concentrations ranging from 50 to 0.1 μg/ml in two-fold concentration steps. After 1 hour, virus was added, and the incubation was continued for 4 days with RSV or CMV and for 2 days with HSV. At the end of the experiment, the amount of virus growth was quantitated and the yield reduction at various concentrations of compound was calculated. This allows estimation of the concentration of compound giving 50% reduction in virus growth (IC50).
(§2) Table 1. Fifty percent inhibitory concentrations for growth inhibition
(§3) (yield reduction) and for plaque formation were determined as described i
(§4) the text. The virus strains used were RSV (A2), CMV (Ad169), HSV1
(§5) (Patton). The host cells used were human foreskin fibroblasts (HF) and […]

The subject of the next test is RSV A2. Type of test: in vivo, cotton rats. Conditions: for inhibition of RSV in vivo (summary): cotton rats, all experiments of Table 3.
The next test relates to viral protein synthesis. The test is described as follows: viral protein synthesis in infected vero cells (mechanism of action). The format is cell-based. As to the method:
The time in the virus life-cycle when Example 1 exerts its effect was determined to increase understanding of the mechanism of action. This was accomplished by adding and removing the compound at various times relative to infection and assessing the effect on viral protein synthesis. Vero cells were infected on ice for 1 hour, unadsorbed virus was removed, and then the infected cells were incubated at 37° C. for 18 hours (virus adsorption will occur on ice, but fusion will not proceed until the temperature is raised to 18° C. or above). After the 18 hour incubation at 37° C. (when the bulk of ongoing protein synthesis was directed by viral RNAs), ^35 S-methionine was added for 2 hours, the cells were lysed, and the labeled proteins were analyzed on SDS-PAGE gels. The viral N, P, and M proteins were then evident. […] However, when the compound of Example 1 was added even after only 5 minutes incubation at 37° C., viral protein production was unimpeded. Therefore, the process inhibited was the fusion process or some closely succeeding step which is required for later viral gene expression.

Test [2] has as its system syncytium formation in cells previously infected with RSV. Description: syncytium formation in RSV-infected vero cells. Type of test: cell-based, African green monkey. As to the method: This was done by infecting vero cells at a multiplicity of infection of 3 for 1 hour, then replacing the original medium with fresh medium. After 6 hours incubation, compound was added. After 24 and 48 hours, the infected cells were examined under the microscope to determine the extent of syncytium formation. Differences in the extent of syncytium formation due to the presence of compound were easily recognized and the compounds were easily ranked in terms of potency in this assay. The actual IC50's as judged by this method are approximate. They were 0.3 and 0.05 μg/ml for compounds 16 and 17, respectively.

Test [3] deals with RSV. Type of test: in vivo, cotton rats. Conditions: EXPT 3, Lavage/Plaque.
The subject of test [4] is RSV. Type of test: in vivo, cotton rats. Conditions: EXPT 3, Lung/Plaque.
The test system of test [5] is CMV (Ad169). Description: viral yield reduction assay (growth inhibition), CMV. The format is cell-based, human cytomegalovirus. Conditions: Human betaherpesvirus 5, AD169, 96 h, HF cells, 4 days. The protocol: as §1, §2, §3, §4, §5
The subject of test [6] is CMV (Ad169). Description: viral plaque reduction assay, CMV Ad169. The format is cell-based, human cytomegalovirus. Conditions: Table 1; HF cells.
Test [7] concerns RSV (A2). The test is described as follows: viral plaque reduction assay, RSV A2. The format is cell-based, human respiratory syncytial virus. Conditions: Table 1; vero cells. In general terms: Plaque reduction counts the foci of infection that form in a cell layer.
[8] abbreviates: i.n. d 0 15 mg/k, d 1,2,3 30 mg/k.
The mark [9] stands for this setting: EXPT 3, i.n. 30 mg/k d 1,2,3, Lavage/CPE.
[10] abbreviates: EXPT 3, i.n. d 0 15 mg/k, d 1 30 mg/k, Lavage/CPE.
[11] abbreviates: EXPT 3, i.n. d 0 15 mg/k, d 1,2,3 30 mg/k, Lavage/CPE.
Setting [12] is: EXPT 3, i.p. 30 mg/k d 1,2,3, Lavage/CPE.

Values joined by “and” are separate entries in the source; they are usually repeats but may differ in a detail not shown here. Equal entries are not always repeated. Structures can show the parent of a compound that is named as a salt. Where two headings read alike, the source gives them in different places. A value given as a limit tells only on which side of the number the result lay.

As to “4,4'-Bis[4-chloro-6-di[4-amino-N'-[3-aminophenyl-N,N-bis(2-carbamoylethyl)sulfonylimino]-benzamide]-1,3,5-triazin-2-ylamino]-stilbene-2,2'-disulfonic acid, disodium salt [Example 24]”, the “IC50 in growth inhibition RSV/VERO” value in the test on RSV (A2) [1] (vero cells) worked out at 50 mg/L.

As to “4,4'-Bis[4,6-di[4-amino-N'-[3-aminophenyl-N,N-bis(2-hydroxyethyl)sulfonylimino]-benzensulfoamide]-1,3,5-triazin-2-ylamino]-stilbene-2,2'-disulfonic acid, disodium salt [Example 25]”, in the test on RSV (A2) [1] (vero cells), the “IC50 in growth inhibition RSV/VERO” value stood at 30 mg/L.

`NC(=O)CCN(CCC(N)=O)S(=O)(=O)c1cccc(Nc2nc(Nc3cccc(S(=O)(=O)N(CCC(N)=O)CCC(N)=O)c3)nc(Nc3ccc(/C=C/c4ccc(Nc5nc(Nc6cccc(S(=O)(=O)N(CCC(N)=O)CCC(N)=O)c6)nc(Nc6cccc(S(=O)(=O)N(CCC(N)=O)CCC(N)=O)c6)n5)cc4S(=O)(=O)O)c(S(=O)(=O)O)c3)n2)c1` [Example 1, 4,4'-Bis[4.6-di[3-aminophenyl-N,N-bis(2-carbamoyl-ethyl)sulfonylimino]-1,3,5-triazin-2-ylamino]-stilbene-2,2'-disulfonic acid, disodium salt]: the “inhibition of RSV in vivo (summary)” value in the test with RSV A2 is recorded as “inhibit RSV in vivo”. In addition, the Mean titer in the test with RSV A2 (rat, in vivo, disodium salt) is 2.8 log10/g lung and 1.73 log10/g lung and 3.43 log10/g lung. In the test with viral protein synthesis (10 μg/ml added immediately after virus adsorption and before raising temperature to 37° C.), the viral protein synthesis entry was “fully prevented”. Further, the viral protein production entry in the test on viral protein synthesis (added after only 5 minutes incubation at 37° C.) is “unimpeded”. For the same molecule, the “inhibition of syncytium formation” value in test [2] is “inhibit syncytium formation”.

In the case of `NC(=O)CCN(CCC(N)=O)S(=O)(=O)c1cccc(Nc2nc(Nc3cccc(S(=O)(=O)N(CCC(N)=O)CCC(N)=O)c3)nc(Nc3ccc(-c4ccc(Nc5nc(Nc6cccc(S(=O)(=O)N(CCC(N)=O)CCC(N)=O)c6)nc(Nc6cccc(S(=O)(=O)N(CCC(N)=O)CCC(N)=O)c6)n5)cc4S(=O)(=O)O)c(S(=O)(=O)O)c3)n2)c1` [Example 4, 4,4'-Bis[4,6-di[3-aminophenyl-N,N-bis(2-carbamoyl-ethyl)sulfonylimino]-1,3,5-triazin-2-ylamino]-biphenyl-2,2'-disulfonic acid, disodium salt], the Fold red. with RSV [3] (i.n. 30 mg/k d 1,2,3) amounted to 1.2 log10; with RSV [3] (i.n. d 0 15 mg/k, d 1 30 mg/k), 2.03 log10; in the test on RSV [3] (setting [8]), 2.04 log10; with RSV [3] (i.p. 30 mg/k d 1,2,3), 0.09 log10; with RSV A2 (setting [9]), 2.51 log10; with RSV A2 (setting [10]) it was 2.52 log10. In addition, the Fold red. with RSV A2 (setting [11]) came to 2.13 log10; with RSV A2 (setting [12]) it was 0 log10; in the test on RSV A2 (rat, in vivo), 1.63 log10; in the test with RSV [4] (i.n. 30 mg/k d 1,2,3), 1.18 log10; in the test with RSV [4] (i.n. d 0 15 mg/k, d 1 30 mg/k), 2.23 log10; in the test with RSV [4] (setting [8]) it was 2.3 log10. This molecule also had a Fold red. in the test on RSV [4] (i.p. 30 mg/k d 1,2,3) of 0.26 log10. Also, the Mean titer in the test with RSV [3] (i.n. 30 mg/k d 1,2,3) was determined as 3.09 log10/g lung; in the test on RSV [3] (i.n. d 0 15 mg/k, d 1 30 mg/k), 2.26 log10/g lung; with RSV [3] (setting [8]), 2.25 log10/g lung; with RSV [3] (i.p. 30 mg/k d 1,2,3) it was 4.1 log10/g lung; in the test with RSV A2 (setting [9]) it was 1.67 log10/g lung; in the test with RSV A2 (setting [10]), 1.66 log10/g lung. The Mean titer in the test on RSV A2 (setting [11]) is given as 2.05 log10/g lung; in the test with RSV A2 (setting [12]), 4.18 log10/g lung; with RSV A2 (rat, in vivo) it was 2.05 log10/g lung; in the test on RSV [4] (i.n. 30 mg/k d 1,2,3), 3.37 log10/g lung; in the test with RSV [4] (i.n. d 0 15 mg/k, d 1 30 mg/k) it was 2.32 log10/g lung; with RSV [4] (setting [8]), 2.25 log10/g lung. For the same molecule, in the test with RSV [4] (i.p. 30 mg/k d 1,2,3), the Mean titer is 3.92 log10/g lung. For the same molecule, the “inhibition of RSV in vivo (summary)” value in the test with RSV A2 is recorded as “inhibit RSV in vivo”. For the same molecule, the “inhibition of syncytium formation” value in [2] is listed as “inhibit syncytium formation”.

As to `NC(=O)CCN(CCC(N)=O)S(=O)(=O)c1cccc(Nc2nc(Cl)nc(Nc3ccc(/C=C/c4ccc(Nc5nc(Cl)nc(Nc6cccc(S(=O)(=O)N(CCC(N)=O)CCC(N)=O)c6)n5)cc4S(=O)(=O)O)c(S(=O)(=O)O)c3)n2)c1` [Example 8, 4,4'-Bis[4-chloro-6-[3-aminophenyl-N,N-bis(2-carbamoylethyl)sulfonylimino]-1,3,5-triazin-2-ylamino]-stilbene-2,2'-disulphonic acid, disodium salt], the IC50 in the test on CMV (Ad169) [5] is above 50 mg/L; in the test with RSV (A2) [1] (HF cells, read-out: IC50 in growth inhibition RSV/HF) it was above 50 mg/L; in the test on RSV (A2) [1] (vero cells, read-out: IC50 in growth inhibition RSV/VERO), above 50 mg/L.

Regarding “4-[4.6-Di[3-aminophenyl-N,N-bis(2-carbamoylethyl)sulfonylimino]-1,3,5-triazin-2-ylamino]-4'-(4-[3-aminophenyl-N,N-bis(2-carbamoylethyl)sulfonylimino]- 6-[3-aminophenyl-N,N bis(3-propionic acid)-1,3,5-triazin-2-ylamino]-stilbene-2,2'-disulphonic acid, disodium salt [Example 10]”, in the test on RSV (A2) [1] (HF cells), the “IC50 in growth inhibition RSV/HF” value was below 3 mg/L. The “IC50 in growth inhibition RSV/VERO” value in the test with RSV (A2) [1] (vero cells) turned out to be 0.7 mg/L.

Turning to `NC(=O)c1ncn([C@@H]2O[C@H](CO)[C@@H](O)[C@H]2O)n1` [Ribavirin, reference compound], in the test on RSV A2 (rat, in vivo), the Fold red. was determined as 0.8 log10 and the Mean titer is 3.3 log10/g lung.

As to “9.9-Dioxo-2,7-Bis[4,6-di[3-aminophenyl-N,N-bis(2-carbamoylethyl)sulfonylimino]-1,3,5-triazin-2-ylamino]-dibenzothiophen-3.6-disulfonic acid, disodium salt [Example 23]”, the “IC50 in plaque assay CMV/HF” value with CMV (Ad169) [6] was 20 mg/L. In the test on RSV (A2) [7], the “IC50 in plaque assay RSV/VERO” value worked out at 8 mg/L.

The values above are taken from patent publication US5852015A, “Triazine containing anionic compounds useful as antiviral agents” (American Cyanamid Company, priority 1997, dated 1998).
